Laboratory results published in US12054482B2, “TLR8 agonist” (CHIA TAI TIANQING PHARMACEUTICAL GROUP CO., LTD., priority 2018, dated 2024).
Structures can show the parent of a compound that is named as a salt. Where two headings read alike, the source gives them in different places.

System: human peripheral blood mononuclear cells (hPBMCs)
Test: Cytokine induction in human peripheral blood mononuclear cells
Type: cell-based
Conditions: PBMC, hPBMC, 24 hours
From the text: Experimental Example 2: Experimental Procedure for Peripheral Blood Mononuclear Cell
TLR8 is a receptor for the innate immune system to sense exogenous pathogens, and can recognize exogenous viral single-stranded RNA and cause the release of a series of cytokines such as TNF-α, IL-12, IFN-γ to elicit an antiviral immune response; TLR7 is another receptor for the innate immune system to sense exogenous pathogens and, when activated, produces primarily such antiviral cytokines as IFN-α. In this experiment, a potential compound of TLR8 agonist was used to stimulate human peripheral blood mononuclear cells (hPBMCs), and the levels of TNF-α, IL-12p40, IFN-γ and IFN-α above were measured to reflect the activation of the compound on TLR8 receptor and its selectivity for TLR8/TLR7.
The experimental procedures are as follows: • 1. Fresh blood of healthy volunteers was collected, and anticoagulated with an EDTA-K2 anticoagulation tube (catalog No. BD-8516542); • 2. hPBMC cells in the middle cloud-like layer were separated after Ficoll density gradient centrifugation, and washed twice with RPMI1640 (source: Gibco, catalog No. 224400-089) containing 10% serum, and the culture medium was resuspended to 10 mL. After the cells were counted with Vi-cell cell counter, the concentration of cell suspension was adjusted to 2×10^6/mL; • 3. The compound was dissolved in DMSO to 100 mM, and diluted to 50 mM and 2 mM with DMSO, which were served as initial concentrations. Then the solutions were each diluted sequentially in a 3-fold gradient (sample at a previous concentration (5 μL)+DMSO (10 μL)) to obtain 8 gradients. The resulting solutions were respectively subjected to 500-fold dilution with the culture medium to prepare the working solutions of the compound; • 4. 100 μL of hPBMC suspension and 100 μL of compound working solution were added to each well of a U-bottom 96-well plate, with the final concentrations being 2000 nM, 666.7 nM, 222.2 nM, 74.1 nM, 24.7 nM, 8.2 nM, 2.7 nM and 0.9 nM respectively, and incubated for 24 hours. Then the supernatants were collected and cryopreserved at −20° C. for the detection of TNF-α, IFN-γ and IL-12p40 cytokines. The other group of compound samples, with the final concentrations being 50 μM, 16.7 μM, 5.6 μM, 1.9 μM, 0.6 μM, 0.2 μM, 0.1 μM and 0.02 μM respectively, were incubated for 24 hours. […] IL-12p40, TNF-α and IFN-γ in the supernatant were detected by flow cytometric bead array (CBA); IFN-α in the cell supernatant was detected by enzyme-linked immuno sorbent assay (ELISA). • 6. Data analysis: compound activity: EC50 values (half maximal effect concentration) were analyzed using a GraphPad Prism software and the dose-response curves of the compound were fitted to calculate EC50 values for the compound.

CCCC[C@](C)(Cc1ncn[nH]1)Nc1nc(N)nc2cnccc12 [Hydrochloride of Example 1] was tested, and the EC50 (CBA, TLR8 pathway cytokine, read-out: IFN-γ EC50) was 29 nM, the EC50 (CBA, TLR8 pathway cytokine, read-out: IL-12p40 EC50) was 26 nM and the EC50 (CBA, TLR8 pathway cytokine, read-out: TNF-α EC50) was 105 nM. It also gave an EC50 (ELISA, TLR7 pathway cytokine, read-out: IFN-α EC50) of 2800 nM.
